System: skin cancer cell line A-431
Test: cancer cell growth inhibition (CellTiter-Glo cell viability)
Format: cell-based
Conditions: mutant p53 expression, up to 15 μM, 5 days; FIG. 11
Method: The leucine zipper variant p53LZ2 was evaluated for anticancer activity against the osteosarcoma cell line SJSA-1 (ATCC), the breast cancer cell line MCF7 (ATCC), and the skin cancer cell line A-431 (ATCC), the first two expressing wild-type p53 and the other expressing mutant p53.
Each of the cell lines was seeded at a density of 1×10^3 cells/well in 10% FBS-supplemented RPMI (Gibco) or DMEM (Gibco) into 96-well plates. The next day, the leucine zipper variant (TAT-p53LZ2; TAT (RKKRRQRRR; SEQ ID NO: 5) linked to the N-terminus of p53LZ2, constructed in Example 1) or Nutlin-3 (Sigma) was added at a concentration of 0, 0.59, 0.88, 1.32, 1.98, 2.96, 4.44, 6.67, 10, or 15 μM (increasing by 1.5 fold) in an amount of 100 μL to each well before the cells were cultured for 5 days at 37° C. in an 5% CO2 incubator. To each well was added 80 μL of CellTiter-Glo reagent (Promega), followed by measuring luminescence on EnVision Multilabel Reader (PerkinElmer) to examine cell viability.

## COc1ccc(C2=N[C@@H](c3ccc(Cl)cc3)[C@@H](c3ccc(Cl)cc3)N2C(=O)N2CCNC(=O)C2)c(OC(C)C)c1 [Nutlin-3]
  cytotoxicity in A431 cell line: failed to exert cytotoxicity

— US9365833B2, “Leucine zipper variant and use thereof” (Samsung Electronics Co., Ltd., priority 2013, dated 2016)
